The values that follow come from patent publication US10172868B2, “Substituted quinazolines for inhibiting kinase activity” (NeuPharma, Inc., priority 2013, dated 2019).

In one experiment the target is EGFR (ErbB1) T790M L858R (Homo sapiens (Human), UniProt P00533, L858R/T790M). Put plainly: Z'-LYTE kinase inhibition assay, EGFR L858R/T790M. The format is biochemical. Conditions: for inhibition at 1 µM: read-out: % inhibition against EGFR L858R/T790M (Compound at 1 μM); for pIC50: read-out: IC50 against EGFR L858R/T790M; for inhibition at 0.0137 µM: read-out: % inhibition against EGFR L858R/T790M (Compound at 0.0137 μM). The method, boiled down:
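IC50 taken from 10-point, 3-fold serial dilutions tested in 1% DMSO. The mutant kinase and peptide were prepared in HEPES pH 6.5 buffer with BRIJ-35, MgCl2, EGTA and NaN3, then reacted with ATP for 1 h at room temperature. Development reagent was added for a further hour before the fluorescence readout.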

The target of a further experiment is BTK (Homo sapiens (Human), UniProt Q06187). Put plainly: Z'-LYTE kinase inhibition assay, BTK. The format is biochemical. The note with it: for inhibition at 0.041 µM: compound at 0.041 μM, read-out: % inhibition against BTK; for pIC50: read-out: IC50 against BTK. Put shortly: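 Z'-LYTE FRET assay with Tyr 01 peptide in 50 mM HEPES pH 7.5, 10 mM MgCl2, 1 mM EGTA, 0.01% BRIJ-35. Compounds in 1% DMSO were tested as 10-point, 3-fold titrations.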

The target of the next experiment is JAK2 (Homo sapiens (Human), UniProt O60674). The experiment can be described thus: Z'-LYTE kinase inhibition assay, JAK2. Conditions: compound at 0.041 μM; read-out: % inhibition against JAK2. It is filed as biochemical. The procedure: (§1) Inhibitory activities of compounds against BTK, EGFR and EGFR mutants (EGFR L858R, EGFR T790M, EGFR L858R/T790M), FGFR1, FGFR2, JAK2, JAK3 and KDR were measured by Invitrogen using Z'-LYTE® Method as briefly described in the following.
(§2) Test Compounds are screened in 1% DMSO (final) in the well. For 10 point titrations, 3-fold serial dilutions are conducted from the starting concentration. All ATP Solutions are diluted to a 4× working concentration in Kinase Buffer (50 mM HEPES pH 7.5, 0.01% BRIJ-35, 10 mM MgCl2, 1 mM EGTA). Peptide/Kinase Mixtures are diluted to a 2× working concentration in the appropriate Kinase Buffers as described below.
(v) Peptide/Kinase Mixtures for Measurement of JAK2:
The 2×JAK2/Tyr 06 mixture is prepared in 50 mM HEPES pH 7.5, 0.01% BRIJ-35, 10 mM MgCl2, 1 mM EGTA. The final 10 μL Kinase Reaction consists of 0.06-0.81 ng JAK2 and 2 μM Tyr 06 in 50 mM HEPES pH 7.5, 0.01% BRIJ-35, 10 mM MgCl2, 1 mM EGTA. After the 1 hour Kinase Reaction incubation, 5 μL of a 1:64 dilution of Development Reagent A is added.
(§3) Reaction starts by 30-second shaking of mixture consisting of 2.5 μL 4× test compound, […] 2× kinase reaction mixture and 2.5 μL 4×ATP Solution on Bar-coded Corning, low volume NBS, black 384-well plate (Corning Cat. #3676). Then the mixture is incubated for 60-minute at room temperature for the kinase reaction, followed by addition of 5 μL of a 1:1024 dilution of development reagent A and 30-second plate shake. The mixture is then incubated for another 60-minute at room temperature for development reaction. Finally fluorescence is read by plate reader.

In the next experiment the target is FGFR1 (Homo sapiens (Human), UniProt P11362). Put plainly: Z'-LYTE kinase inhibition assay, FGFR1. The format is biochemical. The note with it: compound at 0.041 μM; read-out: % inhibition against FGFR1. The procedure:
as §1, §2
(v) Peptide/Kinase Mixtures for Measurement of FGFR1:
The 2×FGFR1/Tyr 04 mixture is prepared in 50 mM HEPES pH 7.5, 0.01% BRIJ-35, 10 mM MgCl2, 4 mM MnCl2, 1 mM EGTA, 2 mM DTT. The final 10 μL Kinase Reaction consists of 0.41-3.5 ng FGFR1 and 2 μM Tyr 04 in 50 mM HEPES pH 7.5, 0.01% BRIJ-35, 10 mM MgCl2, 2 mM MnCl2, 1 mM EGTA, 1 mM DTT. After the 1 hour Kinase Reaction incubation, 5 μL of a 1:64 dilution of Development Reagent B is added.
as §3
To determine IC50 of a compound against EGFR, EGFR mutant and other kinases, a series of concentrations of the compound were tested for the inhibition. […] The scale utilized in Table 4 is as follows: +++ less than 100 nM, ++ 100-500 nM and + greater than 500 nM.

A further experiment concerns HCC827 cells. Put plainly: cells. The note with it: Homo sapiens, HCC827, 72 h, read-out: IC50 in HCC827 cells.
A further experiment deals with H1975 cells. The experiment can be described thus: Inhibition of cancer cell growth, MTT assay, H1975. The note with it: Homo sapiens, NCI-H1975, 72 h, read-out: IC50 in H1975 cells.
The next experiment deals with EGFR (ErbB1) (Homo sapiens (Human), UniProt P00533). Put plainly: Z'-LYTE kinase inhibition assay, EGFR. The format is biochemical. The note with it: for inhibition at 0.041 µM: read-out: % inhibition against EGFR (Compound at 0.041 μM); for pIC50: read-out: IC50 against EGFR. Put shortly: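 IC50 values derived from 10-point, 3-fold compound dilution series (1% DMSO final) using Z'-LYTE fluorescence readout after 60-min development. Reaction: EGFR (1.1-5.25 ng) with 2 μM peptide, 60 min at room temperature in HEPES pH 7.5 buffer containing MgCl2, MnCl2, EGTA, DTT and BRIJ-35.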

In another experiment the test system is A431 cells. Put plainly: cells. Conditions: Homo sapiens, A-431, 72 h, read-out: IC50 in A431 cells.
The next experiment relates to H1299 cells. Put plainly: Inhibition of cancer cell growth, MTT assay, H1299. Conditions: Homo sapiens, NCI-H1299, 72 h, read-out: IC50 in H1299 cells.
A further experiment relates to H3255 cells. The experiment can be described thus: Inhibition of cancer cell growth, MTT assay, H3255. Conditions: Homo sapiens, NCI-H3255, 72 h, read-out: IC50 in H3255 cells. In general terms: Tetrazolium dyes change colour on reduction, which living cells bring about.

pIC50: −log10 of the molar value.

Chain of EGFR (ErbB1) T790M L858R (P00533 25-1210 T790M/L858R): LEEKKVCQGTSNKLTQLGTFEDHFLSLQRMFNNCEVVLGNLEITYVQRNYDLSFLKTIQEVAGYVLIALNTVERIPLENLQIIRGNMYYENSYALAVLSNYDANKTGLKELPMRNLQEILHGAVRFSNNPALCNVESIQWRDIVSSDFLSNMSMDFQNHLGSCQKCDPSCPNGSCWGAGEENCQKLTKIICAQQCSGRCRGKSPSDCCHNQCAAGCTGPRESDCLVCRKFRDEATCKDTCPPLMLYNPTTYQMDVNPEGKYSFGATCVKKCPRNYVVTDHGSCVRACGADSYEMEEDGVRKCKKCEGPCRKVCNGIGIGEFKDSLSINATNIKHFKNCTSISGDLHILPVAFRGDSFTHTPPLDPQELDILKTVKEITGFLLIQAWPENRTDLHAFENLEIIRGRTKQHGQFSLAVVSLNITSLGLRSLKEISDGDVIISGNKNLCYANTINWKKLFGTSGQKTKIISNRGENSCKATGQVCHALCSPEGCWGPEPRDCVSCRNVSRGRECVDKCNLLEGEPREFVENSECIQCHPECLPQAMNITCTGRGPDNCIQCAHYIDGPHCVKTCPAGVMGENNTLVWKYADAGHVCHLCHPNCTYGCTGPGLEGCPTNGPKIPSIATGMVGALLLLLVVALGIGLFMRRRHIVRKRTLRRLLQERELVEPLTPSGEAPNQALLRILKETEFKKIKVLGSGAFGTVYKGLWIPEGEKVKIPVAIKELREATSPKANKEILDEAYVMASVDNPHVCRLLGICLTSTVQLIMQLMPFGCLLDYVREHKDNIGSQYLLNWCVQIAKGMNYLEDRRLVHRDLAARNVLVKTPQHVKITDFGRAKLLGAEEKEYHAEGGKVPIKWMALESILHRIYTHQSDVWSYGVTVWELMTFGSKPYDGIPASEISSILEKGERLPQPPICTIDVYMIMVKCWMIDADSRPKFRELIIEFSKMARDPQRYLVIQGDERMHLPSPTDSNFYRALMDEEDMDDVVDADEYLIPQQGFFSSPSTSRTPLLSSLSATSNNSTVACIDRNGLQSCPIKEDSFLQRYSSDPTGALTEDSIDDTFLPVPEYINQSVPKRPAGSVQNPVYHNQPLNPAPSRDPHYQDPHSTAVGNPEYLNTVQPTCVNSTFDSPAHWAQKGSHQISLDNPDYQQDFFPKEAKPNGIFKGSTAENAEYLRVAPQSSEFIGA
Chain of BTK (Q06187 whole entry): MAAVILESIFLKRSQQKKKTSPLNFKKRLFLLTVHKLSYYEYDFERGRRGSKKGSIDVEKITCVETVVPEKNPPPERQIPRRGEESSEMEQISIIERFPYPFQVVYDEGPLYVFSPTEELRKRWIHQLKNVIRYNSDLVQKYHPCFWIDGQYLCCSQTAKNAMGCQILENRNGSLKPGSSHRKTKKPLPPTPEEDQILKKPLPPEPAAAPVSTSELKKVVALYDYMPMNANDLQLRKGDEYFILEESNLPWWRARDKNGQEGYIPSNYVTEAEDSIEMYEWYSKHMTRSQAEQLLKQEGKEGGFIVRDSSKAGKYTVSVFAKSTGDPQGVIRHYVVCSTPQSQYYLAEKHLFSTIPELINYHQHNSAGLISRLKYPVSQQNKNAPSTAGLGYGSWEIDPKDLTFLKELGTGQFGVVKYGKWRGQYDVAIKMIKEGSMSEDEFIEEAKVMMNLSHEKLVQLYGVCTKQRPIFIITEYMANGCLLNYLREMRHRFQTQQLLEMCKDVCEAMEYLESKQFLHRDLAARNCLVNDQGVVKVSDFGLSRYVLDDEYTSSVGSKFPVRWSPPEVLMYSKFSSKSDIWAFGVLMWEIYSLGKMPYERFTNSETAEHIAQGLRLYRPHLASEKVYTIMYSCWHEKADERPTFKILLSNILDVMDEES
Chain of FGFR1 (P11362 22-822): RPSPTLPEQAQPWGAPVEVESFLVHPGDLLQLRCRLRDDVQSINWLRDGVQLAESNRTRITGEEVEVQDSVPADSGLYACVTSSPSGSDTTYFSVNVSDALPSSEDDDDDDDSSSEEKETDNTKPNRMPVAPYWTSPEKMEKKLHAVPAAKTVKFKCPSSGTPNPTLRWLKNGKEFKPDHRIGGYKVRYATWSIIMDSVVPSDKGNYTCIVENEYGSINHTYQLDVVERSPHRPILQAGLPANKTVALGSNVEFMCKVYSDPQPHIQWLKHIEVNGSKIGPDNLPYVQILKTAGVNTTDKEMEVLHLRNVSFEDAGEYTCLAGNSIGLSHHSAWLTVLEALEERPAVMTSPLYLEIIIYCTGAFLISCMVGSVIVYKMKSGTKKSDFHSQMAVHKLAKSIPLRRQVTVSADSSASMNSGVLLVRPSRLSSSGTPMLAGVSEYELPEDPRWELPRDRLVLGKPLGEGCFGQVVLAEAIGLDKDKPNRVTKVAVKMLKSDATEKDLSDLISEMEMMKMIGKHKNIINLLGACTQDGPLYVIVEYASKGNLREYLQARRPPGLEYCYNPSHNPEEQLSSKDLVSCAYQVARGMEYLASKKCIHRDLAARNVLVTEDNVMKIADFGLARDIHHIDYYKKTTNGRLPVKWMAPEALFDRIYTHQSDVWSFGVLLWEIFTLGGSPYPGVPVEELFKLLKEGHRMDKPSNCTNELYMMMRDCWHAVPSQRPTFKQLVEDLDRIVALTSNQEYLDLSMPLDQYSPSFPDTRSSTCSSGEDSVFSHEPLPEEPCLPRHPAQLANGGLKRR
Chain of EGFR (ErbB1) (P00533 25-1210): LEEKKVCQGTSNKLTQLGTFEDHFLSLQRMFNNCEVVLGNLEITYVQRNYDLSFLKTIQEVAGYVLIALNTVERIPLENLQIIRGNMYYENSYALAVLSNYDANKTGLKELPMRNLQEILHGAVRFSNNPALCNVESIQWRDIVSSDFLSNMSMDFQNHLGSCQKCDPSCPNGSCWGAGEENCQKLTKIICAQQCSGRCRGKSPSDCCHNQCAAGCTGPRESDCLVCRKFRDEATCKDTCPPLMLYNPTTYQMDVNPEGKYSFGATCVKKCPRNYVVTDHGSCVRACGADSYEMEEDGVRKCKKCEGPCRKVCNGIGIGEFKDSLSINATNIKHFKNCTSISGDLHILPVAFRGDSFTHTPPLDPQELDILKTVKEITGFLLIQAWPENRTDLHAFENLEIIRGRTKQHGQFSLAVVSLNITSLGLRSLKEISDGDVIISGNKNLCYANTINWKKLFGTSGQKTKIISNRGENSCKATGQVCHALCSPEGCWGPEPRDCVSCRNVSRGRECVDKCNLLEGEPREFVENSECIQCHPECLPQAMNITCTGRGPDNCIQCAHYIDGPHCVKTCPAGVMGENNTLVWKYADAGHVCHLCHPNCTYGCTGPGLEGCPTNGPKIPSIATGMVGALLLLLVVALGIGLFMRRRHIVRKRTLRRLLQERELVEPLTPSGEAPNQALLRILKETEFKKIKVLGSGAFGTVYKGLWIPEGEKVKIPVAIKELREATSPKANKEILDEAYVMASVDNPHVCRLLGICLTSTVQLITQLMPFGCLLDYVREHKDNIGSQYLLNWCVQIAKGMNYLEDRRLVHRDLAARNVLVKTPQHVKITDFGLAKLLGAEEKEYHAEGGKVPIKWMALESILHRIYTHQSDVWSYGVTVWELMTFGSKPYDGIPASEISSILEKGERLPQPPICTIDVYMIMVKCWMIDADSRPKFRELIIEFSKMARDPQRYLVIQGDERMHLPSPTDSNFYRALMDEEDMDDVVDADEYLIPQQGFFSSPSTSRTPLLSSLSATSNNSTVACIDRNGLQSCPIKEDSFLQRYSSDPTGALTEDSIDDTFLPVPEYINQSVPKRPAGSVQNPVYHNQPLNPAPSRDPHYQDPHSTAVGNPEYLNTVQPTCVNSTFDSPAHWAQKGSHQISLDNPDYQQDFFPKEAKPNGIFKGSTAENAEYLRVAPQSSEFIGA
Chain of JAK2 (O60674 whole entry): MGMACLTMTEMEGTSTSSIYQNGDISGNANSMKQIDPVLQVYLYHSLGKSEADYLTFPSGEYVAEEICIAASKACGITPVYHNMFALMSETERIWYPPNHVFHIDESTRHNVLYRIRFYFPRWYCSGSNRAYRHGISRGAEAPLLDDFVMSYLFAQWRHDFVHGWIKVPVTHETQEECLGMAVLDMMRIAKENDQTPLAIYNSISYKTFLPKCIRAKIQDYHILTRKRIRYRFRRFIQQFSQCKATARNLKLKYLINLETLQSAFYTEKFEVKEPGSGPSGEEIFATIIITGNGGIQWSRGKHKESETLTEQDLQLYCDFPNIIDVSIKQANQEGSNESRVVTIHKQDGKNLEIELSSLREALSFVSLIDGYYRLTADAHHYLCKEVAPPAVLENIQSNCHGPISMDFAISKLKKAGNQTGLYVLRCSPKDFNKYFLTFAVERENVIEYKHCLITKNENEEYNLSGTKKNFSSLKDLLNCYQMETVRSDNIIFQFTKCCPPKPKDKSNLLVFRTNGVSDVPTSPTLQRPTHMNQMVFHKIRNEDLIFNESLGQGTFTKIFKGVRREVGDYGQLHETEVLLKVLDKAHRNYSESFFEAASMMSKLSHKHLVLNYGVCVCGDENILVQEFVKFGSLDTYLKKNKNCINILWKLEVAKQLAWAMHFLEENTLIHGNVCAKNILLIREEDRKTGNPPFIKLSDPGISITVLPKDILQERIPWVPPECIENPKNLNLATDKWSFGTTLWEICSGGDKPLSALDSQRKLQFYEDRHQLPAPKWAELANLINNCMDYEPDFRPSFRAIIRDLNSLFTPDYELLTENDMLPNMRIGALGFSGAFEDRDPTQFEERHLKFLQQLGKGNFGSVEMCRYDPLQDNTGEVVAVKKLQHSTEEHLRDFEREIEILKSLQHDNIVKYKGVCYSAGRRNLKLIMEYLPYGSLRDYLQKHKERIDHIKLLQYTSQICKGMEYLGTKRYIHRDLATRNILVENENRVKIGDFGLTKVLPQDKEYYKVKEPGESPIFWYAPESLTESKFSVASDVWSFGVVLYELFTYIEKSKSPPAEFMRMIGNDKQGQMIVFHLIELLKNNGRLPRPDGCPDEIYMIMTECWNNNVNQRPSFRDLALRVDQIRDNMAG
Procedure for A431 cells: Taxol (as a positive control. Sigma) and compounds were dissolved in DMSO (Sigma), and the final concentration of DMSO in the medium was 1%. Tumor cells were plated in 96-well plates at densities of about 4000 cells/well of a 96-well plate and allowed to adhere/grow for 24 h. They were then treated with various concentrations of drug for 72 h, 3-(4,5-Dimethylthiazol-2-yl)-2,5-diphenyltetrazolium bromide (MTT, Sigma) was used to determine the number of viable cells at the time of compound addition and the number of cells remaining after 72 h compound exposure. The number of cells remaining after 72 h was compared to the number of viable cells at the time of compound addition by measuring the absorbance at 570 nm, allowing for the calculation of growth inhibition.
(§4) All concentrations of compounds were tested in triplicate and controls were averaged over 4 wells. IC50 was calculated by plotting the concentration of compound vs the percentage of inhibition in treated wells using GraphPad Prism 5.
The scale utilized in Tables 5 is as follows: +++ less than 100 nM; ++ between 100 nM and 500 nM; and + greater than 500 nM.
Procedure for H1299 cells: (§5) Inhibition of cell growth by compounds was measured using MTT assay (Mosmann, T., Journal of Immunological Methods, 1983, 65, 55-63). Tumor cell lines were purchased from ATCC (American Type Culture Collection, Manassas, Va.). All cell lines were maintained in RPMI 1640 (Hyclone) supplemented with 10% fetal bovine serum (FBS, Hyclone), glutamine (2 mM, Hyclone), and antibiotics (penicillin 100 U/mL and streptomycin 50 μg/mL) at 37° C. in a humidified atmosphere of 5% CO2 in air. Taxol (as a positive control. Sigma) and compounds were dissolved in DMSO (Sigma), and the final concentration of DMSO in the medium was 1%. Tumor cells were plated in 96-well plates at densities of about 4000 cells/well of a 96-well plate and allowed to adhere/grow for 24 h. They were then treated with various concentrations of drug for 72 h, 3-(4,5-Dimethylthiazol-2-yl)-2,5-diphenyltetrazolium bromide (MTT, Sigma) was used to determine the number of viable cells at the time of compound addition and the number of cells remaining after 72 h compound exposure. The number of cells remaining after 72 h was compared to the number of viable cells at the time of compound addition by measuring the absorbance at 570 nm, allowing for the calculation of growth inhibition.
as §4
Procedure for H3255 cells: as §5, §4

As to `CC(=O)Nc1cccc(-c2cccc3cnc(Nc4ccc(N5CCN(C)CC5)cc4)nc23)c1` [Example C022, N-(3-(2-((4-(4-methylpiperazin-1-yl)phenyl)amino)quinazolin-8-yl)phenyl)acetamide], the inhibition at 1 µM at EGFR (ErbB1) T790M L858R was above 50%. Besides, the inhibition at 0.041 µM on BTK, on JAK2 and on FGFR1 was above 50% throughout. In addition, the pIC50 in the experiment with HCC827 cells was above 7.00; with H1975 cells, below 6.30.

As to `Clc1ccccc1-c1cccc2cnc(Nc3ccc(N4CCNCC4)cc3)nc12` [Example C026, 8-(2-chlorophenyl)-N-(4-(piperazin-1-yl)phenyl)quinazolin-2-amine], at EGFR (ErbB1) T790M L858R, the inhibition at 1 µM is above 50%. Further, the inhibition at 0.041 µM at BTK was below 50%; at JAK2, above 50%; at FGFR1, above 50%. Also, the pIC50 in the experiment with HCC827 cells and in the experiment with H1975 cells was below 6.30 in each case.

Turning to `C=CC(=O)Nc1cccc(-c2c(C)ccc3cnc(Nc4ccc(N5CCN(C)CC5)cc4)nc23)c1` [Example C034, N-(3-(7-methyl-2-((4-(4-methylpiperazin-1-yl)phenyl)amino)quinazolin-8-yl)phenyl)acrylamide], the inhibition at 0.041 µM at EGFR (ErbB1) was above 50%. The inhibition at 1 µM on EGFR (ErbB1) (read-out: % inhibition against EGFR (Compound at 1 μM)) was above 50%. Further, the pIC50 on EGFR (ErbB1) was above 7.00; on EGFR (ErbB1) T790M L858R, above 7.00; in the experiment on A431 cells, below 6.30; in the experiment on HCC827 cells, above 7.00; with H1299 cells it was below 6.30; in the experiment with H1975 cells, above 7.00.

In the case of `C=CC(=O)Nc1cccc(-c2c(C)ccc3cnc(Nc4ccc(N5CCN(C(C)=O)CC5)cc4)nc23)c1` [Example C035, N-(3-(2-((4-(4-acetylpiperazin-1-yl)phenyl)amino)-7-methylquinazolin-8-yl)phenyl)acrylamide], the pIC50 in the experiment with A431 cells was below 6.30; with HCC827 cells, above 7.00; in the experiment on H1299 cells, below 6.30; with H1975 cells, above 7.00.

Take `C=CC(=O)Nc1cccc(-c2cccc3cnc(Nc4ccc(N5CCN(C(C)=O)CC5)nc4)nc23)c1` [Example C036, N-(3-(2-((6-(4-acetylpiperazin-1-yl)pyridin-3-yl)amino)quinazolin-8-yl)phenyl)acrylamide]: on FGFR1, the inhibition at 0.041 µM was below 50%. In addition, the pIC50 with HCC827 cells was above 7.00; with H1299 cells it was below 6.30; with H1975 cells it was below 6.30.

For `C=CC(=O)Nc1cncc(-c2cccc3cnc(Nc4ccc(N5CCN(C(C)=O)CC5)cc4)nc23)c1` [Example C039, N-(5-(2-((4-(4-acetylpiperazin-1-yl)phenyl)amino)quinazolin-8-yl)pyridin-3-yl)acrylamide], the pIC50 was above 7.00 in the experiment with HCC827 cells, below 6.30 in the experiment with H1299 cells and 6.30 to 7.00 with H1975 cells.

As to `C=CC(=O)Nc1cccc(-c2cccc3cnc(Nc4cnc(N5CCN(C)CC5)nc4)nc23)c1` [Example C046, N-(3-(2-((2-(4-methylpiperazin-1-yl)pyrimidin-5-yl)amino)quinazolin-8-yl)phenyl)acrylamide], the inhibition at 0.041 µM at EGFR (ErbB1) is above 50%. For the same compound, at EGFR (ErbB1) T790M L858R, the inhibition at 0.0137 µM is above 50%. The figures for the pIC50 with A431 cells, in the experiment with H1299 cells and in the experiment on H1975 cells were below 6.30, below 6.30 and above 7.00, respectively.

As for `C=CC(=O)Nc1cccc(-c2cccc3cnc(Nc4ccc(N5CCN(C)CC5)cc4)nc23)c1Cl` [Example C054, N-(2-chloro-3-(2-((4-(4-methylpiperazin-1-yl)phenyl)amino)quinazolin-8-yl)phenyl)acrylamide], the inhibition at 0.041 µM at EGFR (ErbB1), on BTK and on JAK2 was above 50% each time. The inhibition at 0.0137 µM on EGFR (ErbB1) T790M L858R is above 50%. Moreover, the pIC50 on EGFR (ErbB1) T790M L858R was above 7.00; with A431 cells it was below 6.30; in the experiment on H1975 cells, 6.30 to 7.00.

Regarding `C=CC(=O)Nc1cccc(-c2cccc3cnc(Nc4ccc(N5CCN(C)CC5)nc4OC)nc23)c1` [Example C055, N-(3-(2-((2-methoxy-6-(4-methylpiperazin-1-yl)pyridin-3-yl)amino)quinazolin-8-yl)phenyl)acrylamide], the inhibition at 0.041 µM on EGFR (ErbB1), on BTK and at JAK2 was below 50% each time. At EGFR (ErbB1) T790M L858R, the inhibition at 0.0137 µM is above 50%. Also, the pIC50 in the experiment with A431 cells and in the experiment on H1975 cells was 6.30 to 7.00 in each case.

Take `C=CC(=O)Nc1cccc(-c2cccc3cnc(Nc4ccc(N5CCN(C)CC5)c(C(N)=O)c4)nc23)c1` [Example C085, 5-((8-(3-acrylamidophenyl)quinazolin-2-yl)amino)-2-(4-methylpiperazin-1-yl)benzamide]: at EGFR (ErbB1), the inhibition at 0.041 µM was below 50%. The pIC50 on EGFR (ErbB1) T790M L858R was above 7.00; at BTK, above 7.00; in the experiment with A431 cells, 6.30 to 7.00; in the experiment on H3255 cells, below 6.30; with H1299 cells it was below 6.30; with H1975 cells it was above 7.00.

In the case of `C=CC(=O)Nc1cccc(-c2c(F)ccc3cnc(Nc4ccc(N5CCN(CCF)CC5)cc4)nc23)c1` [Example C088, N-(3-(7-fluoro-2-((4-(4-(2-fluoroethyl)piperazin-1-yl)phenyl)amino)quinazolin-8-yl)phenyl)acrylamide], on EGFR (ErbB1), the inhibition at 0.041 µM is above 50%. Also, the inhibition at 0.0137 µM at EGFR (ErbB1) T790M L858R is above 50%. For the same compound, the pIC50 is above 7.00 on EGFR (ErbB1) T790M L858R; below 6.30 in the experiment with A431 cells; below 6.30 in the experiment on H3255 cells; below 6.30 with H1299 cells; above 7.00 with H1975 cells.

With `C=CC(=O)Nc1cccc(-c2cccc3cnc(Nc4ccc(NC5CN(CCO)C5)cc4)nc23)c1` [Example C099, N-(3-(2-((4-((1-(2-hydroxyethyl)azetidin-3-yl)amino)phenyl)amino)quinazolin-8-yl)phenyl)acrylamide], the inhibition at 0.041 µM at EGFR (ErbB1) was above 50%. Moreover, the pIC50 on EGFR (ErbB1) is above 7.00; on EGFR (ErbB1) T790M L858R, above 7.00; at BTK it was above 7.00; in the experiment on A431 cells, 6.30 to 7.00; in the experiment with H3255 cells, below 6.30; in the experiment with H1299 cells, below 6.30. Moreover, in the experiment with H1975 cells, the pIC50 is above 7.00. The inhibition at 0.0137 µM on EGFR (ErbB1) T790M L858R was above 50%.
